Legend:
Test in all cases: relative viability (nuclei count vs DMSO), 5 days (fraction); higher = more cells survive
[1] = compound: CC1=C(C(=NN1)C)CC2=C(C3=C(S2)N(C(=O)N(C3=O)C)CC(C)C)C(=O)N4C[C@@H](CO4)O + COc1cc2c(Oc3ccc(NC(=O)C4(C(=O)Nc5ccc(F)cc5)CC4)cc3F)ccnc2cc1OCCCN1CCOCC1 [Foretinib] (partner 0.25 µM)
Procedure, shortened: (§1)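 Medians of duplicate plates are given as relative viability. That measure is the nuclei count in treated wells divided by the count in vehicle wells. Counts were taken on 4× images of lung cancer cell lines in 1536-well plates, 5 days after pin-tool dosing the day after seeding with one drug alone or a fixed anchor-drug dose plus five library-drug doses (not always all listed) in √10 steps.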

[2] = compound: CC1=C(C(=NN1)C)CC2=C(C3=C(S2)N(C(=O)N(C3=O)C)CC(C)C)C(=O)N4C[C@@H](CO4)O + CS(=O)(=O)N1CCN(Cc2cc3nc(-c4cccc5[nH]ncc45)nc(N4CCOCC4)c3s2)CC1 [Pictilisib] (partner 1 µM)
Procedure, shortened: as §1

IDH-C35 + Tozasertib = compound: Cc1ccccc1C(C(=O)NC1CCCCC1)N(C(=O)Cn1ccnc1C)c1cccc(F)c1 [IDH-C35] + Cc1cc(Nc2cc(N3CCN(C)CC3)nc(Sc3ccc(NC(=O)C4CC4)cc3)n2)n[nH]1 [Tozasertib] (partner 0.1 µM)
Procedure, shortened: as §1

IDH-C35 + Olaparib = compound: Cc1ccccc1C(C(=O)NC1CCCCC1)N(C(=O)Cn1ccnc1C)c1cccc(F)c1 [IDH-C35] + O=C(c1cc(Cc2n[nH]c(=O)c3ccccc23)ccc1F)N1CCN(C(=O)C2CC2)CC1 [Olaparib] (partner 8 µM)
Procedure, shortened: as §1

Cell Line | relative viability ([1]; first compound 0.0025 µM) | relative viability ([1]; first compound 0.007906 µM) | relative viability ([1]; first compound 0.025 µM) | relative viability ([1]; first compound 0.07906 µM) | relative viability ([1]; first compound 0.25 µM) | relative viability ([2]; first compound 0.0025 µM) | relative viability ([2]; first compound 0.007906 µM) | relative viability ([2]; first compound 0.025 µM) | relative viability ([2]; first compound 0.07906 µM) | relative viability ([2]; first compound 0.25 µM) | relative viability (IDH-C35 + Tozasertib; first compound 0.08 µM) | relative viability (IDH-C35 + Tozasertib; first compound 0.253 µM) | relative viability (IDH-C35 + Tozasertib; first compound 0.8 µM) | relative viability (IDH-C35 + Tozasertib; first compound 2.53 µM) | relative viability (IDH-C35 + Tozasertib; first compound 8 µM) | relative viability (IDH-C35 + Olaparib; first compound 0.08 µM) | relative viability (IDH-C35 + Olaparib; first compound 0.253 µM) | relative viability (IDH-C35 + Olaparib; first compound 0.8 µM) | relative viability (IDH-C35 + Olaparib; first compound 2.53 µM) | relative viability (IDH-C35 + Olaparib; first compound 8 µM)
RERF-LC-KJ | 0.866 | 0.942 | 0.909 | 0.886 | 0.935 | 0.623 | 0.527 | 0.557 | 0.518 | 0.587 | 0.396 | 0.503 | 0.489 | 0.544 | 0.442 | 0.853 | 0.896 | 0.963 | 0.985 | 0.869
A-427 | 1.29 | 1.22 | 0.937 | 1.11 | 1.14 | 0.733 | 0.685 | 0.679 | 0.843 | 0.826 | 0.216 | 0.221 | 0.215 | 0.206 | 0.182 | 0.698 | 0.637 | 0.732 | 0.742 | 0.77
NCI-H441 | 1.43 | 1.2 | 0.826 | 0.937 | 0.968 | 0.575 | 0.446 | 0.431 | 0.616 | 0.656 | 0.597 | 0.561 | 0.623 | 0.624 | 0.583 | 0.627 | 0.638 | 0.595 | 0.468 | 0.557
NCI-H1703 | 0.38 | 0.391 | 0.386 | 0.329 | 0.362 | 0.223 | 0.224 | 0.264 | 0.256 | 0.242 |  |  |  |  |  | 0.293 | 0.47 | 0.441 | 0.383 | 0.434
NCI-H1792 |  |  |  |  |  | 0.33 | 0.263 | 0.273 | 0.193 | 0.246 |  |  |  |  |  | 0.508 | 0.444 | 0.417 | 0.474 | 0.362
Calu-6 | 0.984 | 0.813 | 0.715 | 0.809 | 0.897 | 1.01 | 0.939 | 0.887 | 0.949 | 0.981 |  |  |  |  |  | 0.57 | 0.563 | 0.609 | 0.558 | 0.571
SK-LU-1 | 0.659 | 0.556 | 0.527 | 0.492 | 0.548 | 0.544 | 0.354 | 0.336 | 0.327 | 0.343 | 0.359 | 0.347 | 0.364 | 0.341 | 0.341 | 0.422 | 0.399 | 0.396 | 0.484 | 0.448
PC-3 [JPC-3] | 1.14 | 1.01 | 1.05 | 1.02 | 1.08 | 0.896 | 0.866 | 0.732 | 0.797 | 0.763 | 0.803 | 0.898 | 0.861 | 0.852 | 0.927 | 1.15 | 1.11 | 1.2 | 1.07 | 1.06
EMC-BAC-2 | 1.04 | 1.09 | 1.07 | 1.08 | 1.04 | 0.512 | 0.573 | 0.521 | 0.505 | 0.594 | 0.304 | 0.298 | 0.314 | 0.28 | 0.283 | 0.496 | 0.509 | 0.472 | 0.507 | 0.482

— the supplement of paper PMC10307832
